According to patent publication US10179914B2, “CDC25A inhibitor for the treatment of drug resistant cancer or for the prevention of tumor relapse” (INSERM (INSTITUT NATIONAL DE LA SANTÉ ET DE LA RECHERCHE …, priority 2014, dated 2019):

Assays:
[1] = tested on: FLT3-ITD cells; test: Cell death and cell cycle phase at antiproliferative concentrations; assay type: cell-based, human; details: at concentrations inhibiting cell proliferation
Method: (§1) Flow cytometry. Apoptotic cells were detected with Annexin V-FITC detection kit from BD Pharmingen (San Diego, Calif., USA) according to the manufacturer instructions. To evaluate AML cell differentiation, cells were stained for 30 min with the following anti-human monoclonal antibodies: CD11b-PE (Beckman Coulter), CD14-FITC (BD Biosciences), CD15-APC (BD Biosciences). For patient samples, additional hCD45-APC-H7 (BD Biosciences), Annexin V-Pacific Blue (BioLegend, San Diego, Calif., USA) and 7-AAD (Sigma) were used; and for bone marrow mice cells, additional CD33-FITC, CD44-PE Cy7, mCD45-PerCP Cy 5.5, CD14-Alexa 700 were used. Data were collected on a LSRII or a LSRFortessa cytometer (BD Biosciences), and analyzed with FlowJo software. A minimum of 10,000 events was collected.

[2] = tested on: MOLM-14 and MV4-11 cells; test: Differentiation of FLT3-ITD AML cell lines (surface markers, morphology); assay type: cell-based, human
Method: (a-b) MOLM-14 and MV4-11 cells were treated for different times with IRC-083864 (100 nM and 200 nM) and the expression of the cell surface markers CD11b, CD14 and CD15 were followed by flow cytometry analysis. (c) MOLM-14 and MV4-11 cells were treated for different times with IRC-083864 (100 nM) and morphological changes were estimated by microscopy after cells were cytospun and stained at days 8 and 13. Original magnification ×100. (d) MOLM-14 cells were treated for different times with IRC-083864 (100 nM) and c-myc expression as well as C/EBPα phosphorylation on serine 21 were analyzed by western blot at day 1, and C/EBPε expression after 6 days of treatment. (e) MOLM-14 cells were transfected with CDC25A shRNA The expression of the cell surface markers CD11b, CD14 and CD15 were followed by flow cytometry analysis at day 3 and 6 (upper panel), and their morphology was analyzed by microscopy after 6 days (lower panel). Original magnification ×100. (f) MOLM-14 cells were transfected with CDC25A siRNA, and their morphology was analyzed by microscopy after 3 days (upper panel). Original magnification ×100. The efficiency of CDC25A siRNA was assessed by western blot analysis (lower panel).
Lentiviral infections. To generate lentiviral vectors expressing CDC25A protein, sequences were cloned into the pTrip-TAL-Ires-GFP lentiviral vector. We used 293-T packaging cells, co-transfected with lentiviral protein (GAG, POL, and ENV) encoding plasmids, and plasmids containing a control or CDC25A genes, separately. Supernatants containing lentivirus were collected 48 h after transfection, during 3 consecutive days. MOLM-14 cells were plated at 5×10^5 cells in 200 μl in serum-free medium and 5 μl of lentiviral supernatant was added during 3 h. Cells were then grown in 10% FBS RPMI medium.
as §1
Morphological examination. […] were spun at 500 rpm for 5 minutes onto glass slides and May-Grünwald-Giemsa stained at the Toulouse University Hospital hematology laboratory.

[3] = tested on: FLT3-ITD primary AML cells from patients; test: Differentiation of FLT3-ITD primary AML samples; assay type: cell-based, human
Method: (a) 4 primary samples from patients carrying the FLT3-ITD mutation (ITD #1-4) were treated for 6 days with IRC-083864 (100 nM), and the expression of CD14 (upper panel) and CD15 (lower panel) was followed by flow cytometry analysis. (b) Quantification (mean±SEM, n=4) of CD14 and CD15 expression in response to IRC-083864. (c) The morphology of primary cells from patients used in (a) was analyzed by microscopy after 6 days and 9 days of treatment with IRC-083864. Original magnification ×100.
Patient samples. Patient AML samples were obtained after informed consent in accordance with the Declaration of Helsinki and stored at the HIMIP collection. According to the French law, HIMIP collection has been declared to the Ministry of Higher Education and Research (DC 2008-307 collection 1) and obtained a transfer agreement (AC 2008-129) after approbation by ethical committees (Comité de Protection des Personnes Sud-Ouest et Outremer II and APHP ethical committee). […]
Flow cytometry. Apoptotic cells were detected with Annexin V-FITC detection kit from BD Pharmingen (San Diego, Calif., USA) according to the manufacturer instructions. […] Data were collected on a LSRII or a LSRFortessa cytometer (BD Biosciences), and analyzed with FlowJo software. […]

[4] = tested on: human cell lines (tumor cell proliferation); details: compared with BN82685; cited from earlier work
[5] = tested on: Mia-Paca-2 tumors; details: intravenous and oral routes; cited from earlier work
[6] = tested on: human LNCaP xenografts; details: intravenous and oral routes; cited from earlier work
[7] = tested on: HCT-116 tumor spheroids; details: by induction of p21 and apoptosis; cited from earlier work

Cc1nc2c(s1)C(=O)C=C(NCCCN(C)CCCNC1=CC(=O)c3nc(-c4cc(F)ccc4F)oc3C1=O)C2=O [IRC-083864]
accumulation in a phase of the cell cycle [1]: nor accumulation in a particular phase of the cell cycle | cell death [1]: did not induce neither significant cell death | expression of CD11b ([2]; 100 nM and 200 nM, as early as two days): induced in a dose dependent manner | morphological analysis ([2]; 100 nM, 8 and 13 days): monocytic-like nuclear changes | expression of CD15 ([2]; after 8 days): either decreased or did not change significantly | expression of monocytic marker CD14 ([2]; after 8 days, both cell lines): increased | expression of CD14 ([3]; 100 nM, 6 days): increased | morphology of primary cells ([3]; days 6 and 9): monocytic-like morphological nuclear changes | potency of tumor cell proliferation inhibition [4]: equivalent to that of BN82685 | growth of human Mia Paca-2 xenografts [5]: reduces the growth | growth of human LNCaP xenografts [6]: reduces the growth | growth of HCT-116 tumor spheroids [7]: inhibits the growth
